These results are taken from article PMC7024175, “In Depth Analysis of Kinase Cross Screening Data to Identify CAMKK2 Inhibitory Scaffolds” (Molecules, 2020).

Read-outs that look alike come from different tables or passages of the source.

In the test the target is T1, CAMKK2 (Homo sapiens, UniProt Q96RR4).
T1 construct: made in house
In words: CAMKK2 enzyme assay (radiometric, CaMKKtide). The following applies: for remaining activity at 0.01 µM / remaining activity at 0.1 µM / remaining activity at 1 µM: read-out: PoC (activity remaining). In kind it is biochemical.

The mark [1] stands for this setting: 8-point full dose response, read-out: IC50.

T1 sequence (Q96RR4 whole entry): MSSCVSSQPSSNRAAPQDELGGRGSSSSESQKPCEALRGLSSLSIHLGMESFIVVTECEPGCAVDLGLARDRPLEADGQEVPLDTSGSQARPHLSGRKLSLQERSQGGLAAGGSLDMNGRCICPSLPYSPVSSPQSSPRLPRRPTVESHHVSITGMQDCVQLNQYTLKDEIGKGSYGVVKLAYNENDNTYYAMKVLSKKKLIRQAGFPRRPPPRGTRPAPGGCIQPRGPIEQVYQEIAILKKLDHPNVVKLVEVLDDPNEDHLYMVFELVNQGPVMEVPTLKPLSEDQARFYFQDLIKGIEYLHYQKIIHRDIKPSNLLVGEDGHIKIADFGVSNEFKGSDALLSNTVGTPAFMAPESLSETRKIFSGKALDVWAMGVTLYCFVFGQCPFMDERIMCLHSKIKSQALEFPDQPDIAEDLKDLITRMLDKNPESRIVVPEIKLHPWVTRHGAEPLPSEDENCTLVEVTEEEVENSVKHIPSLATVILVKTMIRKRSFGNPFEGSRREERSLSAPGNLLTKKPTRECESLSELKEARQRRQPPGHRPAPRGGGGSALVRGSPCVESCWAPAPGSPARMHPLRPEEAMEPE
Protocol: CAMKK2 activity was determined by measuring the transfer of radiolabeled phosphate from [γ-^32P]-ATP to a synthetic peptide substrate (CaMKKtide) as previously described [49]. Briefly, purified recombinant CAMKK2 (100 pM) was incubated in assay buffer (50 mM HEPES [pH 7.4], 1 mM DTT, 0.02% [v/v] Brij-35) containing 200 μM CaMKKtide (Genscript), 100 μM CaCl2, 1 μM CaM (Sigma-Aldrich, Castle Hill, NSW, Australia) 200 μM [γ-^32P]-ATP (Perkin Elmer, Boston, MA, USA), 5 mM MgCl2 (Sigma-Aldrich, Castle Hill, NSW, Australia) and various concentrations of inhibitors (0–1 μM) in a standard 30 μl assay for 10 min at 30 °C. Reactions were terminated by spotting 15 μl onto P81 phosphocellulose paper (GE Lifesciences, Paramatta, NSW, Australia) and washing extensively in 1% phosphoric acid (Sigma-Aldrich, Castle Hill, NSW, Australia). Radioactivity was quantified by liquid scintillation counting.

As for `COc1cc(N2CCC(N(C)C)CC2)ccc1Nc1ncc(Cl)c(Nc2ccccc2P(C)(C)=O)n1` [ALK-IN-1], the remaining activity at 0.01 µM (0.01 µM inhibitor) was found to be 62%. In addition, the remaining activity at 0.1 µM (0.1 µM inhibitor) was determined as 34%. For the same molecule, the remaining activity at 1 µM (1.0 µM inhibitor) worked out at 3%. Under setting [1], the IC50 is 28 nM.

For `COc1cc(N2CCC(N3CCN(C)CC3)CC2)ccc1Nc1ncc(Cl)c(Nc2ccccc2P(C)(C)=O)n1` [AP26113], the remaining activity at 0.01 µM was 60%, the remaining activity at 0.1 µM came to 20% and the remaining activity at 1 µM was found to be 2%.

In the case of `COc1cc(N2CCC(N)CC2)ccc1Nc1ncc(Cl)c(-c2c[nH]c3ccccc23)n1` [AZD 3463], the “PoC (activity remaining)” value runs as follows: (0.01 µM inhibitor) 103%; (0.1 µM inhibitor) 74%; (1.0 µM inhibitor) 26%. Under setting [1], the IC50 was 185 nM.

As to `CN1CC[C@H](c2c(O)cc(O)c3c(=O)cc(-c4ccccc4Cl)oc23)[C@H](O)C1` [Alvocidib], the remaining activity at 0.01 µM (0.01 µM inhibitor) was determined as 102%. The remaining activity at 0.1 µM (0.1 µM inhibitor) was 62%. The remaining activity at 1 µM (1.0 µM inhibitor) amounted to 29%.

On to `CC(C)[C@H](CO)Nc1nc(Nc2cc(N)cc(Cl)c2)c2ncn(C(C)C)c2n1` [Aminopurvalanol], for which the remaining activity at 0.01 µM (0.01 µM inhibitor) came to 100%. For the same molecule, the remaining activity at 0.1 µM (0.1 µM inhibitor) stood at 80%. In addition, the remaining activity at 1 µM (1.0 µM inhibitor) stood at 22%.

With `CCN1CCN(c2ccc(Nc3cc(N(C)C(=O)Nc4c(Cl)c(OC)cc(OC)c4Cl)ncn3)cc2)CC1` [BGJ 398], the remaining activity at 0.01 µM (0.01 µM inhibitor) came out at 100%. Besides, the remaining activity at 0.1 µM (0.1 µM inhibitor) came to 99%. For the same molecule, the remaining activity at 1 µM (1.0 µM inhibitor) came to 96%.

As to `CC[C@@H]1C(=O)N(C)c2cnc(Nc3ccc(C(=O)N[C@H]4CC[C@H](N5CCN(CC6CC6)CC5)CC4)cc3OC)nc2N1C(C)C` [BI6727], for the setting “0.01 µM inhibitor”, the remaining activity at 0.01 µM was determined as 104%. Also, the remaining activity at 0.1 µM (0.1 µM inhibitor) worked out at 94%. Further, the remaining activity at 1 µM (1.0 µM inhibitor) turned out to be 75%.

`O=C1Nc2cc(Br)ccc2/C1=C1/Nc2ccccc2/C1=N\O` [BIO]: the “PoC (activity remaining)” value by setting is: (0.01 µM inhibitor) 102%; (0.1 µM inhibitor) 100%; (1.0 µM inhibitor) 89%.

Regarding `O=C(NCCCNc1nc(Nc2cccc(NC(=O)N3CCCC3)c2)ncc1I)c1cccs1` [BX795], the remaining activity at 0.01 µM (0.01 µM inhibitor) amounted to 97%. Besides, the remaining activity at 0.1 µM (0.1 µM inhibitor) amounted to 80%. The remaining activity at 1 µM (1.0 µM inhibitor) stood at 33%.

For the molecule `O=C(Nc1cccc(Nc2ncc(Br)c(NCCc3cnc[nH]3)n2)c1)N1CCCC1` [BX912], the “PoC (activity remaining)” value turned out to be 100% (0.01 µM inhibitor), 90% (0.1 µM inhibitor) and 26% (1.0 µM inhibitor).

Regarding `Cc1cc2c(F)c(Oc3ncnn4cc(OC[C@@H](C)O)c(C)c34)ccc2[nH]1` [Brivanib], the remaining activity at 0.01 µM (0.01 µM inhibitor) is 101%. Under “0.1 µM inhibitor”, the remaining activity at 0.1 µM was 100%. Besides, under “1.0 µM inhibitor”, the remaining activity at 1 µM came out at 100%.

With `Nc1nc(Nc2ccc(S(N)(=O)=O)cc2)nn1C(=S)Nc1c(F)cccc1F` [CDK 1/2 Inhibitor III], half-maximal inhibition (IC50) was put at 19 nM, the remaining activity at 0.01 µM amounted to 69%, the remaining activity at 0.1 µM came out at 17% and the remaining activity at 1 µM stood at 3%.

Regarding `Cc1c[nH]c(-c2cnc(NCCNc3ccc(C#N)cn3)nc2-c2ccc(Cl)cc2Cl)n1` [CHIR99021], the remaining activity at 0.01 µM (0.01 µM inhibitor) worked out at 98%. Moreover, under “0.1 µM inhibitor”, the remaining activity at 0.1 µM was found to be 101%. Also, the remaining activity at 1 µM (1.0 µM inhibitor) stood at 96%.

Regarding `COCCOc1ccc2c(c1)ncn2-c1ccc2cccc(N3CCC(N)CC3)c2n1` [CP 673451], the remaining activity at 0.01 µM (0.01 µM inhibitor) came out at 88%. For the same molecule, the remaining activity at 0.1 µM (0.1 µM inhibitor) is 46%. The remaining activity at 1 µM (1.0 µM inhibitor) was 17%. For the same molecule, the IC50 under setting [1] turned out to be 73 nM.

As for `COc1cc(N2CCOCC2)ccc1Nc1ncc(F)c(Nc2ccccc2NS(C)(=O)=O)n1` [CZC 25146], the “PoC (activity remaining)” value reads like this: (0.01 µM inhibitor) 96%; (0.1 µM inhibitor) 101%; (1.0 µM inhibitor) 93%.

Regarding `CC1(COc2ccc3c(c2)ncn3-c2ccc3cccc(N4CCC(N)CC4)c3n2)COC1` [Crenolanib], the remaining activity at 0.01 µM (0.01 µM inhibitor) stood at 118%. For the same molecule, the remaining activity at 0.1 µM (0.1 µM inhibitor) worked out at 92%. For the same molecule, the remaining activity at 1 µM (1.0 µM inhibitor) came to 47%.

In the case of `c1cc(-c2cnn3cc(-c4ccc(OCCN5CCCCC5)cc4)cnc23)ccn1` [Dorsomorphin], the remaining activity at 0.01 µM (0.01 µM inhibitor) was found to be 100%. For the same molecule, the remaining activity at 0.1 µM (0.1 µM inhibitor) came out at 96%. For the same molecule, under “1.0 µM inhibitor”, the remaining activity at 1 µM was determined as 58%.

Take `O=C(Nc1nc2cccc(-c3ccc(CN4CCS(=O)(=O)CC4)cc3)n2n1)C1CC1` [Filgotinib]: the remaining activity at 0.01 µM (0.01 µM inhibitor) came out at 96%. The remaining activity at 0.1 µM (0.1 µM inhibitor) was 86%. Besides, where the note is “1.0 µM inhibitor”, the remaining activity at 1 µM turned out to be 72%.

As to `C[C@@H](Oc1cc(-n2cnc3ccc(CN4CCN(C)CC4)cc32)sc1C(N)=O)c1ccccc1C(F)(F)F` [GSK461364], under “0.01 µM inhibitor”, the remaining activity at 0.01 µM is 95%. Moreover, the remaining activity at 0.1 µM (0.1 µM inhibitor) was determined as 96%. Under “1.0 µM inhibitor”, the remaining activity at 1 µM was found to be 92%.

For `O=C1NC(=O)/C(=C/c2ccc3nccc(-c4ccncc4)c3c2)S1` [GSK1059615], under “0.01 µM inhibitor”, the remaining activity at 0.01 µM came to 92%. The remaining activity at 0.1 µM (0.1 µM inhibitor) was 81%. Also, under “1.0 µM inhibitor”, the remaining activity at 1 µM is 34%.

For the molecule `CCc1nc(C(N)=O)c(Nc2ccc(N3CCC(N4CCN(C)CC4)CC3)c(OC)c2)nc1NC1CCOCC1` [Gilteritinib], the remaining activity at 0.01 µM (0.01 µM inhibitor) worked out at 84%. Moreover, where the note is “0.1 µM inhibitor”, the remaining activity at 0.1 µM came out at 74%. Moreover, where the note is “1.0 µM inhibitor”, the remaining activity at 1 µM is 18%. The IC50 under setting [1] came out at 204 nM.

Take `Cn1c2ccccc2c2c3c(c4c5ccccc5n(CCC#N)c4c21)CNC3=O` [Go6976]: where the note is “0.01 µM inhibitor”, the remaining activity at 0.01 µM came out at 97%. The remaining activity at 0.1 µM (0.1 µM inhibitor) worked out at 92%. The remaining activity at 1 µM (1.0 µM inhibitor) worked out at 80%.

For the molecule `CCS(=O)(=O)Nc1ccc2c(c1)/C(=C(/Nc1ccc(CN3CCCCC3)cc1)c1ccccc1)C(=O)N2` [Hesperadin], the remaining activity at 0.01 µM (0.01 µM inhibitor) came out at 99%. Further, the remaining activity at 0.1 µM (0.1 µM inhibitor) stood at 95%. The remaining activity at 1 µM (1.0 µM inhibitor) was found to be 84%.

On to `COC(=O)[C@@]1(O)C[C@H]2O[C@]1(C)n1c3ccccc3c3c4c(c5c6ccccc6n2c5c31)C(=O)NC4` [K252a], for which the “PoC (activity remaining)” value reads like this: (0.01 µM inhibitor) 99%; (1.0 µM inhibitor) 31%.

Take `O=C(c1ccc(/C=C/c2n[nH]c3ccccc23)cc1)N1CCNCC1` [KW2449]: the remaining activity at 0.01 µM (0.01 µM inhibitor) stood at 96%. In addition, the remaining activity at 0.1 µM (0.1 µM inhibitor) came to 84%. Besides, the remaining activity at 1 µM (1.0 µM inhibitor) turned out to be 42%.

As for `c1ccc2c(-c3cnn4cc(-c5ccc(N6CCNCC6)cc5)cnc34)ccnc2c1` [LDN 193189], the “PoC (activity remaining)” value reads like this: (0.01 µM inhibitor) 68%; (0.1 µM inhibitor) 62%; (1.0 µM inhibitor) 50%. For the same molecule, under setting [1], the IC50 was determined as 146 nM.

For `C[C@]12O[C@H](C[C@]1(O)CO)n1c3ccccc3c3c4c(c5c6ccccc6n2c5c31)CNC4=O` [Lestaurtinib], the remaining activity at 0.01 µM turned out to be 64%, the remaining activity at 0.1 µM was 33% and the remaining activity at 1 µM was 3%.

With `C=CCn1c(=O)c2cnc(Nc3ccc(N4CCN(C)CC4)cc3)nc2n1-c1cccc(C(C)(C)O)n1` [MK1775], the remaining activity at 0.01 µM (0.01 µM inhibitor) was determined as 101%. Moreover, the remaining activity at 0.1 µM (0.1 µM inhibitor) is 99%. In addition, the remaining activity at 1 µM (1.0 µM inhibitor) is 99%.

With `Cc1ncc(CCCN(C)C)cc1Nc1ncc2c(n1)-c1ccc(C(F)(F)F)cc1NC(=S)C2` [MLN 0905], the “PoC (activity remaining)” value reads like this: (0.01 µM inhibitor) 99%; (0.1 µM inhibitor) 95%; (1.0 µM inhibitor) 86%.

One may read the remaining activity as the signal under treatment as a percentage of the control signal. For orientation: IC50 means the concentration that inhibits the measured activity by half.
